Target: Recombinant human ATX (Homo sapiens (Human), UniProt Q13822)
Test: ATX inhibition assay (choline release, Amplex Red fluorescence)
Type: biochemical
Settings: ATX 10 nM, LPC 18:1 10 μM, 37° C., 20 min pre-incubation; mean of n≧2
Procedure, shortened: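 Activity was taken from the slope of resorufin fluorescence (530/590 nm, read every 2 min for 40 min at 37 °C) produced by choline liberated from 10 μM oleoyl LPC.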

| SMILES | IC50 [nM] |
| --- | --- |
| Cc1nnn(Cc2cc(C(F)(F)F)ccc2/C=C/C(=O)N2CCC(c3nnc(C4CC4)o3)CC2)n1 [Example 86, (E)-1-(4-(5-Cyclopropyl-1,3,4-oxadiazol-2-yl)piperidin-1-yl)-3-(2-((5-methyl-2H-tetrazol-2-yl)methyl)-4-(trifluoromethyl)phenyl)prop-2-en-1-one] | 4.8 |
| Cc1nnn(Cc2cc(C(F)(F)F)ccc2/C=C/C(=O)N2CCC(N(C)C(=O)c3ccc(F)cc3)CC2)n1 [Example 87] | 19 |
| Cc1noc(CN2CCN(C(=O)/C=C/c3ccc(C(F)(F)F)cc3Cn3nnc(C)n3)CC2)n1 [Example 88, (E)-1-(4-((3-Methyl-1,2,4-oxadiazol-5-yl)methyl)piperazin-1-yl)-3-(2-((5-methyl-2H-tetrazol-2-yl)methyl)-4-(trifluoromethyl)phenyl)prop-2-en-1-one] | 16 |
| Cc1nnn(Cc2cc(C(F)(F)F)ccc2/C=C/C(=O)N2CCN(Cc3ccn(C)n3)CC2)n1 [Example 89, (E)-1-(4-((1-Methyl-1H-pyrazol-3-yl)methyl)piperazin-1-yl)-3-(2-((5-methyl-2H-tetrazol-2-yl)methyl)-4-(trifluoromethyl)phenyl)prop-2-en-1-one] | 3.5 |
| CNC(=O)[C@@H]1CCCN1C(=O)/C=C/c1ccc(C(F)(F)F)cc1Cn1nnc(C)n1 [Example 90, (S,E)-N-Methyl-1-(3-(2-((5-methyl-2H-tetrazol-2-yl)methyl)-4-(trifluoromethyl)phenyl)acryloyl)pyrrolidine-2-carboxamide] | 49 |
| CNC(=O)[C@@H]1CC(F)(F)CN1C(=O)/C=C/c1ccc(C(F)(F)F)cc1Cn1nnc(C)n1 [Example 91, (S,E)-4,4-Difluoro-N-methyl-1-(3-(2-((5-methyl-2H-tetrazol-2-yl)methyl)-4-(trifluoromethyl)phenyl)acryloyl)pyrrolidine-2-carboxamide] | 160 |
| CCc1nnc(C2CCN(C(=O)/C=C/c3ccc(C(F)(F)F)cc3Cn3nnc(C)n3)CC2)o1 [Example 92, (E)-1-(4-(5-Ethyl-1,3,4-oxadiazol-2-yl)piperidin-1-yl)-3-(2-((5-methyl-2H-tetrazol-2-yl)methyl)-4-(trifluoromethyl)phenyl)prop-2-en-1-one] | 3.6 |
| Cc1nnn(Cc2cc(C(F)(F)F)ccc2/C=C/C(=O)N2CCN(Cc3noc(C)n3)CC2)n1 [Example 93, (E)-1-(4-((5-Methyl-1,2,4-oxadiazol-3-yl)methyl)piperazin-1-yl)-3-(2-((5-methyl-2H-tetrazol-2-yl)methyl)-4-(trifluoromethyl)phenyl)prop-2-en-1-one] | 10 |
| CCc1nnc(C2CCN(C(=O)/C=C/c3ccc(Cl)cc3Cn3nnc(C)n3)CC2)o1 [Example 94, (E)-3-(4-Chloro-2-((5-methyl-2H-tetrazol-2-yl)methyl)phenyl)-1-(4-(5-ethyl-1,3,4-oxadiazol-2-yl)piperidin-1-yl)prop-2-en-1-one] | 10 |
| Cc1cc(CC(=O)N(C)C2CCN(C(=O)/C=C/c3ccc(C(F)(F)F)cc3Cn3nnc(C)n3)CC2)on1 [Example 95, (E)-N-Methyl-N-(1-(3-(2-((5-methyl-2H-tetrazol-2-yl)methyl)-4-(trifluoromethyl)phenyl)acryloyl)piperidin-4-yl)-2-(3-methylisoxazol-5-yl)acetamide] | 25 |
| Cc1nnn(Cc2cc(Cl)ccc2/C=C/C(=O)N2CCC(c3nnc(C4CC4)o3)CC2)n1 [Example 96, (E)-3-(4-Chloro-2-((5-methyl-2H-tetrazol-2-yl)methyl)phenyl)-1-(4-(5-cyclopropyl-1,3,4-oxadiazol-2-yl)piperidin-1-yl)prop-2-en-1-one] | 8.3 |
| Cc1nnn(Cc2cc(C(F)(F)F)ccc2/C=C/C(=O)N2CCC(N3CCCCC3=O)CC2)n1 [Example 97, (E)-1′-(3-(2-((5-Methyl-2H-tetrazol-2-yl)methyl)-4-(trifluoromethyl)phenyl)acryloyl)-[1,4′-bipiperidin]-2-one] | 23 |
| Cc1nnn(Cc2cc(Cl)ccc2/C=C/C(=O)N2CC[C@@H](c3nnc(C)o3)C[C@H]2C)n1 [Example 98, (E)-3-(4-Chloro-2-((5-methyl-2H-tetrazol-2-yl)methyl)phenyl)-1-((2R,4R)-2-methyl-4-(5-methyl-1,3,4-oxadiazol-2-yl)piperidin-1-yl)prop-2-en-1-one] | 66 |
| COCC1CCN(C(=O)/C=C/c2ccc(C(F)(F)F)cc2Cn2nnc(C)n2)CC1 [Example 99, (E)-1-(4-(Methoxymethyl)piperidin-1-yl)-3-(2-((5-methyl-2H-tetrazol-2-yl)methyl)-4-(trifluoromethyl)phenyl)prop-2-en-1-one] | 25 |
| Cc1nnn(Cc2cc(Cl)ccc2/C=C/C(=O)N2CCC(c3nnc(C(C)C)o3)CC2)n1 [Example 100, (E)-3-(4-Chloro-2-((5-methyl-2H-tetrazol-2-yl)methyl)phenyl)-1-(4-(5-isopropyl-1,3,4-oxadiazol-2-yl)piperidin-1-yl)prop-2-en-1-one] | 3.9 |
| Cc1cc(CN2CCN(C(=O)/C=C/c3ccc(C(F)(F)F)cc3Cn3nnc(C)n3)CC2)on1 [Example 101, (E)-3-(2-((5-Methyl-2H-tetrazol-2-yl)methyl)-4-(trifluoromethyl)phenyl)-1-(4-((3-methylisoxazol-5-yl)methyl)piperazin-1-yl)prop-2-en-1-one] | 5 |
| CCS(=O)(=O)N1CCN(C(=O)/C=C/c2ccc(C(F)(F)F)cc2Cn2nnc(C)n2)CC1 [Example 102, (E)-1-(4-(Ethylsulfonyl)piperazin-1-yl)-3-(2-((5-methyl-2H-tetrazol-2-yl)methyl)-4-(trifluoromethyl)phenyl)prop-2-en-1-one] | 53 |
| Cc1nnn(Cc2cc(C(F)(F)F)ccc2/C=C/C(=O)N2CCC(c3nnc(C4CCC4)o3)CC2)n1 [Example 103, (E)-1-(4-(5-Cyclobutyl-1,3,4-oxadiazol-2-yl)piperidin-1-yl)-3-(2-((5-methyl-2H-tetrazol-2-yl)methyl)-4-(trifluoromethyl)phenyl)prop-2-en-1-one] | 5.3 |

Results, then the compound that gave them:

| IC50 [nM] | SMILES |
| --- | --- |
| 3.9 | Cc1nnn(Cc2cc(Cl)ccc2/C=C/C(=O)N2CCN(Cc3noc(C)n3)C[C@H]2C)n1 [Example 104, (R,E)-3-(4-Chloro-2-((5-methyl-2H-tetrazol-2-yl)methyl)phenyl)-1-(2-methyl-4-((5-methyl-1,2,4-oxadiazol-3-yl)methyl)piperazin-1-yl)prop-2-en-1-one] |
| 16 | Cc1nnn(Cc2cc(Cl)ccc2/C=C/C(=O)N2CCC(Cn3nnc(C)n3)CC2)n1 [Example 109, (E)-3-(4-Chloro-2-((5-methyl-2H-tetrazol-2-yl)methyl)phenyl)-1-(4-((5-methyl-2H-tetrazol-2-yl)methyl)piperidin-1-yl)prop-2-en-1-one] |
| 5.2 | Cc1nnn(Cc2cc(Cl)ccc2/C=C/C(=O)N2CCC(c3nnc(CC4CCOCC4)o3)CC2)n1 [Example 110, (E)-3-(4-Chloro-2-((5-methyl-2H-tetrazol-2-yl)methyl)phenyl)-1-(4-(5-((tetrahydro-2H-pyran-4-yl)methyl)-1,3,4-oxadiazol-2-yl)piperidin-1-yl)prop-2-en-1-one] |
| 47 | COC[C@@H]1CCCN1C(=O)/C=C/c1ccc(C(F)(F)F)cc1Cn1nnc(C)n1 [Example 111, (S,E)-1-(2-(Methoxymethyl)pyrrolidin-1-yl)-3-(2-((5-methyl-2H-tetrazol-2-yl)methyl)-4-(trifluoromethyl)phenyl)prop-2-en-1-one] |
| 14 | Cc1nnn(Cc2cc(C(F)(F)F)ccc2/C=C/C(=O)N2CCC(N(C)S(=O)(=O)C3CC3)CC2)n1 [Example 112, (E)-N-Methyl-N-(1-(3-(2-((5-methyl-2H-tetrazol-2-yl)methyl)-4-(trifluoromethyl)phenyl)acryloyl)piperidin-4-yl)cyclopropanesulfonamide] |
| 3.9 | Cc1noc(CN2CCN(C(=O)/C=C/c3ccc(Cl)cc3Cn3nnc(C)n3)[C@H](C)C2)n1 [Example 114, (R,E)-3-(4-Chloro-2-((5-methyl-2H-tetrazol-2-yl)methyl)phenyl)-1-(2-methyl-4-((3-methyl-1,2,4-oxadiazol-5-yl)methyl)piperazin-1-yl)prop-2-en-1-one] |
| 33 | Cc1nnn(Cc2cc(C(F)(F)F)ccc2/C=C/C(=O)N2CCN(Cc3nonc3C)CC2)n1 [Example 116, (E)-1-(4-((4-Methyl-1,2,5-oxadiazol-3-yl)methyl)piperazin-1-yl)-3-(2-((5-methyl-2H-tetrazol-2-yl)methyl)-4-(trifluoromethyl)phenyl)prop-2-en-1-one] |
| 263 | Cc1nnn(Cc2cc(C(F)(F)F)ccc2/C=C/C(=O)N2CCC[C@H]2C)n1 [Example 117, (R,E)-3-(2-((5-Methyl-2H-tetrazol-2-yl)methyl)-4-(trifluoromethyl)phenyl)-1-(2-methylpyrrolidin-1-yl)prop-2-en-1-one] |
| 24 | Cc1nnn(Cc2cc(C(F)(F)F)ccc2/C=C/C(=O)N2CCC(N(C)S(=O)(=O)c3ccc(F)cc3)CC2)n1 [Example 118, (E)-4-Fluoro-N-methyl-N-(1-(3-(2-((5-methyl-2H-tetrazol-2-yl)methyl)-4-(trifluoromethyl)phenyl)acryloyl)piperidin-4-yl)benzenesulfonamide] |
| 47 | COc1ccc(CN(C)C2CCN(C(=O)/C=C/c3ccc(C(F)(F)F)cc3Cn3nnc(C)n3)CC2)cc1 [Example 119, (E)-1-(4-((4-Methoxybenzyl)(methyl)amino)piperidin-1-yl)-3-(2-((5-methyl-2H-tetrazol-2-yl)methyl)-4-(trifluoromethyl)phenyl)prop-2-en-1-one] |
| 8.1 | Cc1cnn(CC2CCN(C(=O)/C=C/c3ccc(Cl)cc3Cn3nnc(C)n3)CC2)n1 [Example 120, (E)-3-(4-Chloro-2-((5-methyl-2H-tetrazol-2-yl)methyl)phenyl)-1-(4-((4-methyl-2H-1,2,3-triazol-2-yl)methyl)piperidin-1-yl)prop-2-en-1-one] |
| 6.9 | Cc1nnn(Cc2cc(C(F)(F)F)ccc2/C=C/C(=O)N2CCCC[C@H]2C(F)(F)F)n1 [Example 121, (S,E)-3-(2-((5-Methyl-2H-tetrazol-2-yl)methyl)-4-(trifluoromethyl)phenyl)-1-(2-(trifluoromethyl)piperidin-1-yl)prop-2-en-1-one] |

Source: patent US9763957B2, “Autotaxin inhibitors” (Novartis AG, priority 2013, dated 2017)
